We go through six compounds from US8445444B2, “Compositions and methods for diagnosing, treating, and preventing prostate conditions” (Phigenix, Inc., priority 2007, dated 2013).

“Also recorded” adds a separate entry of the source.

In assay [1] the test system is DU145. Nature of the assay: Western analysis. In kind it is cell-based, human. To be noted: for PAX2 expression / phospho-PAX2 protein levels / phospho-JNK protein levels: DU145; for PAX2 expression / phospho-PAX2 protein levels: 5 uM Los, 25 uM U0126, 20 uM PD98059, 250 μM AICAR. The method, then:
. Following a 15 minute incubation period at 4° C. on an orbital shaker, cell lysate were then collected and centrifuged for 10 minutes at 12000×g to pellet cellular debris. The protein-containing supernatant were then collected and quantitated. Next, 25 μg protein extract was loaded onto an 8-16% gradient SDS-PAGE (Novex). Following electrophoresis, proteins were transferred to PVDF membranes, and then blocked with 5% nonfat dry milk in TTBS (0.05% Tween 20 and 100 mM Tris-Cl) for 1 hour. Blots were then probed with rabbit anti-PAX2 primary antibody (Zymed, San Francisco, Calif.) at a 1:2000 dilution. After washing, the membranes were incubated with anti-rabbit antibody conjugated to horseradish peroxidase (HRP) (dilution 1:5000; Sigma), and signal detection was visualized using chemilluminescence reagents (Pierce) on an Alpha Innotech Fluorchem 8900. As a control, blots were stripped and reprobed with mouse anti-β-actin primary antibody (1:5000; Sigma-Aldrich) and HRP-conjugated anti-mouse secondary antibody (1:5000; Sigma-Aldrich) and signal detection was again visualized.
Following a 15-minute incubation period at 4° C. on an orbital shaker, cell lysates were collected and centrifuged for 10 minutes at 12000×g to pellet cellular debris. The protein-containing supernatant were then collected and quantitated. Next, 25 ug protein extract was loaded onto an 8-16% gradient SDS-PAGE (Novex). Following electrophoresis, proteins were transferred to PVDF membranes, and then blocked with 5% nonfat dry milk in TTBS (0.05% Tween 20 and 100 mM Tris-Cl) for 1 hour. Blots were then probed with primary antibody (anti-PAX2, -phospho-PAX2, -JNK, -phospho-JNK, -ERK1/2, or -phospho-ERK1/2) (Zymed, San Francisco, Calif.) at 1:1000-2000 dilutions. After washing, the membranes were incubated with anti-rabbit antibody conjugated to horseradish peroxidase (HRP) (dilution 1:5000; Sigma), and signal detection was visualized using chemilluminescence reagents (Pierce) on an Alpha Innotech Fluorchem 8900. As a control, blots were stripped and re-probed with mouse anti-β-actin primary antibody (1:5000; Sigma-Aldrich) and HRP-conjugated anti-mouse secondary antibody (1:5000; Sigma-Aldrich), and signal detection was again visualized.
. Following a 15-min incubation period at 4° C. on an orbital shaker, cell lysates were collected and centrifuged for 10 min at 12,000 g to pellet cellular debris. The protein-containing supernatant were then collected and quantitated. Next, 25 μg protein extract was loaded onto an 8-16% gradient SDS-PAGE (Novex). Following electrophoresis, proteins were transferred to PVDF membranes, and then blocked with 5% non-fat dry milk in TTBS (0.05% Tween 20 and 100 mM Tris-Cl) for 1 h. Blots were then probed with rabbit anti-PAX2 primary antibody (Zymed, San Francisco, Calif.) at a 1:1000 dilution. After washing, the membranes were incubated with anti-rabbit antibody conjugated to horseradish peroxidase (HRP) (dilution 1:5000; Sigma), and signal detection was visualized using chemiluminescence reagents (Pierce) on an Alpha Innotech Fluorchem 8900. As a control, blots were stripped and reprobed with mouse anti-β-actin primary antibody (1:5000; Sigma-Aldrich) and HRP-conjugated anti-mouse secondary antibody (1:5000; Sigma-Aldrich), and signal detection was again visualized.

Assay [2] deals with DU145. Put plainly: Western analysis. Format: cell-based, human. To be noted: 5 uM Los, 25 uM U0126, 20 uM PD98059, 250 μM AICAR.
Assay [3] concerns DU145. Nature of the assay: Quantitative RT-PCR of gene expression. In kind it is cell-based, human. To be noted: for PAX2 message levels: DU145, Losartan (FIG. 20A).
Procedure: Total RNA was isolated using the SV Total RNA Isolation System (Promega). Briefly, approximately 1×10^6 cells were harvested by trypsinizing, and rinsed in PBS. Cells were then lysed and total RNA was isolated by centrifugation through spin columns. Total RNA (0.5 μg per reaction) was reverse transcribed into cDNA utilizing Oligo (dT) 15 primer (Promega) and AMV Reverse Transcriptase II enzyme (500 units per reaction; Promega) for first strand synthesis and Tfl DNA Polymerase for second strand synthesis (500 units per reaction; Promega) as per the manufacturers' protocol, with identical control samples treated without RT enzyme. Typically, 50 pg of each cDNA was used per ensuing PCR reaction Two-step QRT-PCR was performed on cDNA generated using the MultiScribe Reverse Transcripatase from the TaqMan Reverse Transcription System and the SYBR Green PCR Master Mix (PE Biosystems). […] Reactions were performed in MicroAmp Optical 96-well Reaction Plate (PE Biosystems). Forty cycles of PCR were performed under standard conditions using an annealing temperature of 60° C. Quantification was determined by the cycle number where exponential amplification began (threshold value) and averaged from the values obtained from the triplicate repeats. There was an inverse relationship between message level and threshold value. In addition, GAPDH was used as a housekeeping gene to normalize the initial content of total cDNA. […] All reactions were carried out in triplicate.
Forty cycles of PCR were performed under standard conditions using an annealing temperature of 56° C. In addition, GAPDH was amplified as a housekeeping gene to normalize the initial content of total cDNA. […] All reactions were run three times in triplicate.
In assay [4] the test system is DU145. Nature of the assay: [3H] thymidine incorporation proliferation. In kind it is cell-based, human. To be noted: for effect of AngII on proliferation after Los pre-treatment: DU145, Los 30 min prior to AngII; for increase in proliferation: 72 hours. The method, then:
Reagents and Treatments: […] Thymidine Incorporation: Proliferation of cells was determined by [3H] thymidine […] ([3H] TdR) incorporation into DNA. 0.5×10^6 cells/well of suspension DU145 cells were plated in their appropriate media. Cells were incubated for 72 h with or without the presence of AngII at the indicated concentrations. Cells were exposed to 37 kBq/ml [methyl-3H] thymidine in the same medium for 6 h. The adherent cells were fixed by 5% trichloroacetic acid and lysed in SDS/NaOH lysis buffer overnight. Radioactivity was measured by Beckman LS3801 liquid scintillation counter (Canada). Suspension cell culture was harvested by cell harvester (Packard instrument Co., Meriden, Conn.), and radioactivity was measured by 1450 microbeta liquid scintillation counter (PerkinElmer Life Sciences).
A general note: Uptake of a labelled nucleoside into DNA is a usual measure of proliferation.

Assay [5] deals with human prostate cancer cells. The note with it: xenograft models of human prostate cancer cells; cited from earlier work. Background: A xenograft is tissue or cells of one species grown in another, often human tumour cells in immunodeficient mice.
For assay [6], the system named is HPrEC. Nature of the assay: Quantitative RT-PCR of gene expression. Format: cell-based, human. To be noted: for decrease in DEFB1 expression compared to untreated hPrEC / increase in PAX2 expression compared to untreated hPrEC: 10 uM AngII; for PAX2 expression as % of PAX2 levels in PC3: AngII. On the procedure: RNA Isolation and Quantitative RT-PCR: In order to verify changes in DEFB1 expression levels RNA was collected after 4 days of PAX2 siRNA treatment. Briefly, total RNA was isolated using the SV Total RNA Isolation System (Promega, Madison, Wis.) from approximately 1×10^6 cells harvested by trypsinizing. Here, cells were lysed and total RNA was isolated by centrifugation through spin columns. Total RNA (0.5 μg per reaction) from both sources was reverse transcribed into cDNA utilizing random primers (Promega). AMV Reverse Transcriptase II enzyme (500 units per reaction; Promega) was used for first strand synthesis and Tfl DNA Polymerase for second strand synthesis (500 units per reaction; Promega) as per the manufacturer's protocol. In each case, 50 pg of cDNA was used per ensuing PCR reaction. Two-step QRT-PCR was performed on cDNA generated using the MultiScribe Reverse Transcripatase from the TaqMan Reverse Transcription System and the SYBR Green PCR Master Mix (Applied Biosystems).
The primer pair for DEFB1 was generated from the published DEFB1 sequence (Accession No. U50930). Forty cycles of PCR were performed under standard conditions using an annealing temperature of 56° C. In addition, GAPDH was amplified as a housekeeping gene to normalize the initial content of total cDNA. DEFB1 expression was calculated as the relative expression ratio between DEFB1 and GAPDH and was compared in cells lines before and after siRNA knock-down of PAX2 expression. All reactions were run three times in triplicate.
QRT-PCR Analysis: Quantitative real-time RT-PCR was performed to verify changes in gene expression following PAX2 knockdown in PC3 and DU145 prostate cancer cell lines and the hPrEC normal prostate epithelial cells. Approximately 1×10^6 cells were harvested by trypsinizing and the cells were rinsed in PBS. Cells were then lysed and total RNA was isolated by centrifugation through spin columns using the SV Total RNA Isolation System (Promega). cDNA was generated (0.5 μg per reaction) by reverse transcription by Oligo (dT) 15 primer (Promega) and AMV Reverse Transcriptase II enzyme (500 units per reaction; Promega) for first strand synthesis and Tfl DNA Polymerase for second strand synthesis (500 units per reaction; Promega) as per the manufacturer's protocol. Typically, 50 pg of each cDNA was used per ensuing PCR reaction. Two-step QRT-PCR was performed on cDNA generated using the MultiScribe Reverse Transcripatase from the TaqMan Reverse Transcription System and the SYBR Green PCR Master Mix (PE Biosystems). Reactions were performed in MicroAmp Optical 96-well Reaction Plate (PE Biosystems). Forty cycles of PCR were performed under standard conditions using an annealing temperature of 60° C. Quantification was determined by the cycle number where exponential amplification began (threshold value) and averaged from the values obtained from the triplicate repeats. There was an inverse relationship between message level and threshold value. In addition, GAPDH was used as a housekeeping gene to normalize the initial content of total cDNA. Relative expression was calculated as the ratio between each genes and GAPDH. All reactions were carried out in triplicate.
RNA isolation and quantitative RT-PCR: QRT-PCR was performed as previously described (Gibson et al., 2007). Briefly, total RNA (0.5 μg per reaction) from tissue sections were reverse transcribed into cDNA utilizing random primers (Promega). Two-step QRT-PCR was performed on cDNA generated using the MultiScribe Reverse Transcriptase from the TaqMan Reverse Transcription System and the SYBR Green PCR Master Mix (Applied Biosystems, Foster City, Calif.). The primer pairs for hBD-1 and c-MYC were generated from the published sequences (Table 7). Forty cycles of PCR were performed under standard conditions using an annealing temperature of 56.4° C. for hBD-1 and c-MYC and 55° C. for PAX2. […]

Where [7] appears, read: AngII 72 and 96 hours (FIG. 25 legend).

As to `NC(=O)c1ncn([C@@H]2O[C@H](CO)[C@@H](O)[C@H]2O)c1N` [AICAR, 5-Aminoimidazole-4-carboxamide-1-β-4-ribofuranoside], in assay [1], the PAX2 expression result is given as “suppresses PAX2 protein expression; also recorded: suppressed PAX2 expression; also recorded: suppression of PAX2 pression expression” and the phospho-PAX2 protein levels entry is on record as “suppression”. The phospho-STAT3 protein levels result in assay [2] was “also suppressed”.

For the compound `N#CC(=C(/N)Sc1ccccc1N)/C(C#N)=C(\N)Sc1ccccc1N` [Drug U0126], in assay [1], the phospho-JNK protein levels entry is listed as “did not decrease”, the PAX2 expression entry is “significant reduction of PAX2 expression” and the phospho-PAX2 protein levels result is recorded as “significant decrease or suppression”. Also, the phospho-STAT3 protein levels result in assay [2] is given as “reduced phospho-STAT3 protein levels”.

Consider `CCCCc1nc(Cl)c(CO)n1Cc1ccc(-c2ccccc2-c2nn[nH]n2)cc1` [Losartan], for which the “PAX2 expression compared to untreated control” value in assay [3] (DU145, 5 uM Los, 72 hours) was determined as 50%. Also, the PAX2 message levels entry in assay [3] is reported as “decreased by at least half”; in assay [3] (listed as Los), “significantly reduced PAX2 expression”. The ERK protein levels entry in assay [1] (DU145, 5 uM Los) is “no effect”. Also, the phospho-ERK result in assay [1] (DU145, 5 uM Los) is recorded as “suppresses phosphor-ERK 1/2”; in assay [1] (DU145, 5 uM Los, listed as Los) it was “reduced the amount of phospho-ERK”. Besides, the PAX2 expression entry in assay [1] was “suppresses”; in assay [1] (listed as Los), “significant reduction of PAX2 expression”. The phospho-PAX2 protein levels entry in assay [1] is reported as “significant decrease or suppression”. In assay [4] (DU145, 5 μM Losartan), this compound registered a decrease in proliferation of 50%. In addition, the “effect of AngII on proliferation after Los pre-treatment” value in assay [4] is reported as “blocked the effect of AngII on proliferation”; in assay [4] (listed as Los), “suppressed the effect of AngII on proliferation”. Further, the phospho-STAT3 protein levels result in assay [2] is “suppresses phospho-STAT3 protein expression”; in assay [2] (listed as Los), “reduced phospho-STAT3 protein levels”. In addition, the “tumor growth and vascularization” value in assay [5] was “reduce tumor growth and vascularization”.

Regarding `COc1cccc(-c2cc(=O)c3ccccc3o2)c1N` [PD98059], in assay [1], the PAX2 expression entry was “decreased PAX2” and the phospho-PAX2 protein levels result is on record as “significant decrease or suppression”. In addition, in assay [2], the phospho-STAT3 protein levels entry was “reduced phospho-STAT3 protein levels”.

On to `Cc1cc(Cn2cnc3c2C[C@@H](C(=O)O)N(C(=O)C(c2ccccc2)c2ccccc2)C3)ccc1N(C)C` [PD123319], for which the PAX2 expression increase is recorded as 7 fold in assay [3] (DU145, 5 uM PD123319, 48 hours) and 8 fold in assay [3] (DU145, 5 uM PD123319, 96 hours).

Compound “AngII: Angiotensin II, major regulator of blood pressure, potent mitogen, binds AT1R and AT2R (DRVYIHPF)” came in with a PAX2 expression increase in assay [3] (DU145, 5 μM AngII, 72 hours (FIG. 21 legend)) of 2 fold. This compound also had a PAX2 expression increase in assay [3] (DU145, 10 μM AngII, 72 hours (FIG. 21 legend)) of over 3 fold. For the same compound, in assay [6] (72 hours), the “decrease in DEFB1 expression compared to untreated hPrEC” value is 35%, the “increase in PAX2 expression compared to untreated hPrEC” value worked out at 66% and the “PAX2 expression as % of PAX2 levels in PC3” value is 77%. In addition, in assay [6] (96 hours), the “decrease in DEFB1 expression compared to untreated hPrEC” value is recorded as 50%, the “increase in PAX2 expression compared to untreated hPrEC” value was determined as 79% and the “PAX2 expression as % of PAX2 levels in PC3” value worked out at 89%. Moreover, in assay [6] (setting [7]), the DEFB1 expression result was “reduced significantly” and the PAX2 expression result is given as “dramatic increases in PAX2 to levels similar to PC3 prostate cancer cells”. Moreover, the phospho-JNK protein levels entry in assay [1] is recorded as “increased phosphor-JNK protein levels”. For the same compound, the “PAX2 expression over time” value in assay [1] (DU145, AngII, 30 min to 48 hour (FIG. 19)) was “increased as early as 4 hours and persisted until 48 hours; also recorded: progressively increased over time”. The compound also had an increase in proliferation in assay [4] (DU145, 5 μM AngII) of 2 fold. Also, the increase in proliferation in assay [4] (DU145, 10 μM AngII) is over 3 fold. In assay [4] (DU145, AngII 5 or 10 uM), the “increase in proliferation rate” value was “two- to three-fold increase”.
